# The source made the active and inactive calls. The calls are words filed in the database; no cut-off is given here.
# Legend:
# HeLa = assay: Induction of morphological changes in HPV18 E6 transformed human HeLa cells assessed as cell shrinkage at 80 to 120 uM after 24 hrs; format: functional, cell-based
# [1] = Inhibition of HPV E6 protein interaction with shank1 (unknown origin)
# [2] = Cytotoxicity against HPV E6 transformed human HeLa cells assessed as cell viability at 60 uM treated 24 hrs post plating by WST-1 assay relative to control; format: functional; details: read-out: Activity
# [3] = Downregulation of E6 protein expression in HPV18 E6 transformed human HeLa cells at 60 to 120 uM after 24 hrs by Western blot method; format: functional, cell-based
# [4] = Inhibition of HPV E6 protein interaction with PSD95 PDZ domain3 (unknown origin)
# [5] = Cytotoxicity against HPV E6 transformed human SiHa cells assessed as cell viability at 60 uM treated 24 hrs post plating by WST-1 assay relative to control; format: functional; details: read-out: Activity
# [6] = Inhibition of HPV E6 protein interaction with PSD95 PDZ domain2 (unknown origin)
# 3Y1 [7] = assay: Antimigratory activity in rat 3Y1 cells transfected with pBLAST E6-16 at 40 uM after 24 hrs; format: functional, cell-based
# [8] = Inhibition of HPV E6 protein interaction with MAGI-1 PDZ domain1 (unknown origin)
# [9] = Inhibition of HPV E6 protein interaction with PSD95 PDZ domain1 (unknown origin)
# [10] = Inhibition of HPV E6 protein interaction with Tip1 (unknown origin)
# 3Y1 [11] = assay: Antiproliferative activity in rat 3Y1 cells transfected with pBLAST E6-16 at 40 uM after 24 to 96 hrs; format: functional, cell-based
# [12] = Upregulation of p53 expression in HPV18 E6 transformed human HeLa cells at 80 to 120 uM after 24 hrs by immunocytochemical analysis relative to control; format: functional, cell-based
# [13] = Cytotoxicity against HPV negative human C33A assessed as cell viability at 60 uM treated 24 hrs post plating by WST-1 assay relative to control; parameters: species or system C-33-A; details: C33A cells (HPV negative), read-out: Activity
# [14] = Antiproliferative activity in rat 3Y1 cells transfected with pBLAST at 40 uM after 24 to 96 hrs; format: cell-based; details: 3y1, 40 µM
smiles,measurement,setting,value
CCc1cccc2c(C(c3ccccc3OCC(=O)O)c3c[nH]c4c(CC)cccc34)c[nH]c12,Activity,HeLa,Active
same,IC50,[1],> 250 µM
same,viability at 60 µM,[2],70.1%
same,Activity,[3],Active
same,IC50,[4],> 250 µM
same,viability at 60 µM,[5],74.3%
same,IC50,[6],> 250 µM
same,Activity,3Y1 [7],Active
same,IC50,[8],86.9 µM
same,IC50,[9],> 250 µM
same,IC50,[10],> 250 µM
same,Activity,3Y1 [11],Active
same,Activity,[12],Active
same,"viability at 24 h, 60 µM",[13],104%
same,Activity,[14],Non-Toxic

# Source: ChEMBL document CHEMBL3879889, “Compositions and methods for treating cancer” (2009)
